Patent publication US10308641B2, “Crystal form of 3-(6-(1-(2,2-difluorobenzo[d][1,3]dioxole-5-yl)cyclopropane formamido)-3-methylpyridine-2-yl)benzoic acid and preparation method thereof” (CRYSTAL PHARMATECH CO., LTD., priority 2015, dated 2019)
≈ marks a conversion by molar mass, not a printed value.

Legend:
Format in all cases: physicochemical
[1] = Stability assessment on storage (XRPD and purity)
Procedure: The crystalline Form A of the compound of formula (I) of the present disclosure was stored under 25° C./60% RH and 40° C./75% RH for 90 days. XRPD and purity of the samples were collected after storing for 15 days, 30 days and 90 days. […] The XRPD results of crystalline Form A before and after storing under 25° C./60% RH and 40° C./75% RH for 90 days are depicted in FIG. 7 (FIG. 7: the top, middle and bottom are initial crystalline Form A, crystalline Form A after storing at 25° C./60% RH and 40° C./75% RH for 90 days respectively).

[2] = Solubility comparison, saturated solutions in SGF, FeSSIF, FaSSIF and water, by HPLC; details: FaSSIF, FeSSIF and H2O after 1 hour, 2 hours and 24 hours
[3] = Hygroscopicity assessment by dynamic vapor sorption (DVS); details: for Weight Gain under 80% Relative Humidity: DVS
Procedure: Dynamic vapor sorption (DVS) data in the present disclosure was acquired by a SMS (Surface Measurement Systems Ltd.) DVS Intrinsic. About 10 mg of crystalline Form A of present disclosure was used for DVS test. The parameters of the dynamic vapor sorption (DVS) method of the present disclosure were as follows:
Gas and flow rate: N2, 200 mL/min
RH range: 0% RH to 95% RH
Maximum equilibrate time: 180 min
Humidity gradient: 10% (0% RH-90% RH), 5% (90% RH-95% RH).
About 12.2 mg of crystalline Form A of the present disclosure was used for hygroscopicity testing using dynamic vapor sorption (DVS), crystalline Form A underwent a 0-95%-0 cycle of the relative humidity (RH) change. 4. The XRPD patterns of crystalline Form A before and after hygroscopicity assessment are depicted in FIG. 6. The pattern above is before DVS and the below one is after DVS.
About hygroscopicity characterization description and definition of hygroscopicity (Chinese Pharmacopoeia 2010 edition appendix XIV Drug hygroscopic test guidelines, test at 25° C.+/−1° C., 80% Relative Humidity) • deliquescent: sufficient water is absorbed to form a liquid. • very hygroscopic: increase in mass is equal to or greater than 15%. • hygroscopic: increase in mass is less than 15% and equal to or greater than 2%. • slightly hygroscopic: increase in mass is less than 2% and equal to or greater than 0.2%. • no or almost no hygroscopic: increase in mass is less than 0.2%.

[4] = Solubility comparison, saturated solutions in SGF, FeSSIF, FaSSIF and water, by HPLC; details: for Solubility FeSSIF: pH5.0 FeSSIF; for Solubility FaSSIF: pH6.5 FaSSIF
Procedure: Crystalline Form A of the present disclosure and Form I disclosed in CN101910156A are prepared into saturated solution in SGF (Simulated gastric fluids), pH5.0 FeSSIF (Fed state simulated intestinal fluids), pH6.5 FaSSIF (Fasted state simulated intestinal fluids) and water. Concentrations in the saturation solutions were tested after 1 hour, 4 hours and 24 hours by HPLC.

| SMILES | Solubility H2O ([4]; H2O, 1 hour) | Solubility H2O ([4]; H2O, 4 hours) | Solubility SGF ([4]; 1 hour) | Solubility SGF ([4]; 4 hours) | Solubility SGF ([4]; 24 hours) | Solubility FeSSIF ([4]; 1 hour) | Solubility FeSSIF ([4]; 4 hours) | Solubility FeSSIF ([4]; 24 hours) | Solubility FaSSIF ([4]; 1 hour) | Solubility FaSSIF ([4]; 4 hours) | Solubility FaSSIF ([4]; 24 hours) | other results |
| --- | --- | --- | --- | --- | --- | --- | --- | --- | --- | --- | --- | --- |
| Cc1ccc(NC(=O)C2(c3ccc4c(c3)OC(F)(F)O4)CC2)nc1-c1cccc(C(=O)O)c1 [Form A, 3-(6-(1-(2,2-difluorobenzo [d] [1,3]dioxol-5-yl)cyclopropanecarboxamido)-3-methylpyridin-2-yl) benzoic acid] | 8.6 µg/mL (≈ 19 µM) | 16 µg/mL (≈ 35.4 µM) | 0.9 µg/mL (≈ 1.99 µM) | 1.9 µg/mL (≈ 4.2 µM) | 2 µg/mL (≈ 4.42 µM) | 17 µg/mL (≈ 37.6 µM) | 18 µg/mL (≈ 39.8 µM) | 20 µg/mL (≈ 44.2 µM) | 8.2 µg/mL (≈ 18.1 µM) | 11 µg/mL (≈ 24.3 µM) | 9.5 µg/mL (≈ 21 µM) | Stability (Purity %) 25° C./60% RH ([1]; 25° C./60% RH, 15 days): 99.94%; Stability (Purity %) 25° C./60% RH ([1]; 25° C./60% RH, 30 days): 99.90%; Stability (Purity %) 25° C./60% RH ([1]; 25° C./60% RH, 90 days): 99.93%; Stability under long-term stability condition ([1]; 25° C./60% RH, 90 days, XRPD and purity): stable; Stability (Purity %) 25° C./60% RH ([1]; 25° C./60% RH, Initial): 99.82%; Stability (Purity %) 40° C./75% RH ([1]; 40° C./75% RH, 15 days): 99.94%; Stability (Purity %) 40° C./75% RH ([1]; 40° C./75% RH, 30 days): 99.94%; Stability (Purity %) 40° C./75% RH ([1]; 40° C./75% RH, 90 days): 99.94%; Stability under accelerated stability condition ([1]; 40° C./75% RH, 90 days, XRPD and purity): stable; Stability (Purity %) 40° C./75% RH ([1]; 40° C./75% RH, Initial): 99.82%; Solubility compared with Form I disclosed in CN101910156A [2]: higher; Crystalline form after DVS test (XRPD before and after) ([3]; 0-95%-0 RH cycle): didn't change; Hygroscopicity class ([3]; Chinese Pharmacopoeia 2010 criteria, 25° C., 80% RH): non-hygroscopic or almost non-hygroscopic; Weight Gain under 80% Relative Humidity ([3]; 25° C., 80% RH, listed as Crystalline Form A of the compound of formula (I)): 0.10%; Weight Gain under 80% Relative Humidity ([3]; 25° C., 80% RH, listed as crystalline Form A of the compound of formula (I)): 0.10%; solubility at 24 h ([4]; water, thermodynamic from solid, H2O, 24 hours): 25 µg/mL (≈ 55.3 µM) |
| Cc1ccc(NC(=O)C2(c3ccc4c(c3)OC(F)(F)O4)CC2)nc1-c1cccc(C(=O)O)c1 [Form I, 3-(6-(1-(2,2-difluorobenzo [d] [1,3]dioxol-5-yl)cyclopropanecarboxamido)-3-methylpyridin-2-yl) benzoic acid, reference compound] | 2.2 µg/mL (≈ 4.86 µM) | 6.7 µg/mL (≈ 14.8 µM) | 0.4 µg/mL (≈ 0.884 µM) | <0.22 µg/mL | <0.21 µg/mL | 5.5 µg/mL (≈ 12.2 µM) | 5.9 µg/mL (≈ 13 µM) | 5.5 µg/mL (≈ 12.2 µM) | 2.3 µg/mL (≈ 5.08 µM) | 1.5 µg/mL (≈ 3.32 µM) | 0.9 µg/mL (≈ 1.99 µM) | Solubility H2O ([4]; H2O, 24 hours): 16 µg/mL (≈ 35.4 µM) |
